Test results from patent publication US20060148712A1, “Monocyte chemoattractant activity of galectin-3” (priority 2000, published 2006).
Where two headings read alike, the source gives them in different places.

Tests used:
[1] = tested on: human peripheral blood monocytes; assay: Monocyte migration assay in vitro (96-well micro Boyden chamber); type: cell-based; details: for inhibition at 10000 µM: Homo sapiens, Monocyte, 10 mM lactose, read-out: Inhibition of galectin-3-induced monocyte migration
Source text: Human monocytes were purified from venous blood of normal volunteers essentially as described previously (Nakagawara, et al., J. Clin. Invest. 68:1243-53 (1981)). In brief, after erythrocytes were sedimented by addition of 6% dextran saline solution (I part to 5 parts heparinized blood), the leukocytes were collected, washed twice, and resuspended in Ca^2+ and Mg^2+-free HBSS containing 5% autologous serum. Mononuclear cells were acquired by centrifugation of the leukocyte suspension on Ficoll Paque at 1,500 rpm for 15 min. The cells were resuspended in RPMI 1640 containing 10% autologous serum and allowed to adhere to sterile tissue culture plates for 30 min in a humidified incubator at 5% CO2 and 37° C. After incubation, non-adherent cells were removed by washing the plates three times with PBS at 37° C. […] To detach and harvest the adhered monocytes, 1 mM EDTA-PBS containing 5% serum was added and the plates were incubated on ice for 30 min. The monocytes were washed twice with HBSS and resuspended in RPMI 1640 with 0.1% autologous serum for the migration assay. The viability of monocytes was determined by trypan blue exclusion and was more than 98%. In some experiments, monocytes were purified according to another method using a Percoll discontinuous gradient described previously (Chuluyan & Issekutz, J. Clin. Invest. 92:2768-77 (1993)).
(§1) Monocyte migration was examined by using 96-well micro Boyden chambers with 5 μm-pore size filters (Neuro Probe, Inc., Gaithersburg, Md.) as described previously (Falk, et al., J. Immunol. Meth. 33:239-47 (1980)), Chertov, et al., J. Biol. Chem. 271:2935-40 (1996)). Briefly, after the indicated concentrations of galectin-3 in RPMI 1640 were applied to the lower chambers, purified monocyte suspensions (2.5-5.0×10^4/well) were applied to the upper chambers. After incubation of the chambers for 1 h in a humidified incubator at 5% CO2 and 37° C., the filters were washed once with PBS and processed with Wright stain. The number of monocytes on the bottom side of the filters was counted in 5 to 10 high-power fields. Monocyte migration was calculated from the average numbers of the counted cells and expressed as % of input cells in a well.
In assays using inhibitory reagents, the purified monocytes were pretreated with or without the indicated concentrations of B2C10 (Liu, et al., Biochemistry 35:[…] (1996)) or anti-DNP IgG1 (Liu, et al., J. Immunol. 124:2728-31 (1980)) as an isotype-matched control mAb, galectin-3C, or PTX at 37° C. for 30 min. Then the cells were applied to the upper chambers in the presence of these inhibitors at the same concentrations used in the pretreatment. In the assays using lactose and sucrose, the sugars were added to the lower chambers at the initiation of the migration assay.

human monocytes = assay: Measurement of Ca2+ influx in monocytes (Indo-1 AM); type: cell-based; details: for Induction of Ca2+ influx in human monocytes by chemokine: 100 ng/ml
Description: Intracellular concentrations of Ca^2+ were measured by using Indo-1 AM according to a previously described method (Lopez, et al., Cytometry 10:165-73 (1989)). Purified monocytes were resuspended in HBSS containing 1 mM Ca^2+, 1 mM Mg^2+, and 5% autologous serum, and incubated with […] Indo-1 AM for 45 min at 37° C. The cells were washed once, resuspended in the same buffer, and stimuli and inhibitors were added at the time points specified in the Figure Legends. Intracellular Ca^2+ concentration was measured by monitoring light emission at 405 and 485 nm to an excitation wavelength of 355 nm, using an AMINCO-Bowman series 2 luminescence spectrometer (Rochester, N.Y.).

[2] = tested on: cultured human peripheral blood macrophages; assay: Migration of cultured human peripheral blood macrophages in vitro; type: cell-based; details: confirmed by applicant (FIG. 9)
Source text: (§2) Human macrophages were obtained by culturing peripheral blood monocytes in vitro for 7 days as previously described (Fantuzzi, et al., Blood 94:875-83 (1999)). Human alveolar macrophages were obtained from bronchoalveolar lavage (BAL) fluid according to a previously described protocol (Sugimoto et al, Am. Rev. Respir. Dis. 139:1329-35 (1989)). The purity of the macrophages was over 90% and the viability was over 99%.
as §1

[3] = tested on: human alveolar macrophages; assay: Migration of human alveolar macrophages in vitro; type: cell-based
Source text: as §2, §1

monocytes = type: cell-based, human; details: 1 μg/ml of PTX; data not shown
Description: The possibility that G-proteins might be involved in galectin-3-induced monocyte migration was tested using the inhibitor pertussis toxin (PTX), because it is well known that many chemoattractants, including all chemokines, utilize G-protein-coupled receptors to transduce signals into the cell (Baggiolini, Nature 392:565-68 (1998)).

Compound: MCP-1: human recombinant MCP-1, a strong chemoattractant for monocytes (Pepro Tech)
- Concentration that induced maximum monocyte migration ([1]; dose-response experiments, also printed as 11.6 nM): 100 ng/mL
- Induction of Ca2+ influx in human monocytes by chemokine (human monocytes): induced a Ca^2+ influx
- Response of cultured human macrophages to MCP-1 [2]: do not respond
- Effect on alveolar macrophage migration ([3]; FIG. 10, exp. 1): no effect
- Effect on alveolar macrophage migration ([3]; FIG. 10, exp. 2): negligible effect

Compound: SDF-1α
- Induction of Ca2+ influx in human monocytes by chemokine (human monocytes): induced a Ca^2+ influx

Compound: OC[C@H]1O[C@@](CO)(O[C@H]2O[C@H](CO)[C@@H](O)[C@H](O)[C@H]2O)[C@@H](O)[C@@H]1O [sucrose, reference compound]
- Effect on galectin-3-induced monocyte migration ([1]; sucrose 5 mM or 10 mM, negative control sugar): no significant effect
- Inhibition of galectin-3-induced Ca2+ influx (human monocytes; 5 mM sucrose, 1 μM galectin-3): not

Compound: pertussis toxin [PTX, reference compound]
- Inhibition of MCP-1-induced monocyte migration ([1]; 1 μg/ml of PTX, all MCP-1 concentrations examined): significantly inhibited
- Decrease of galectin-3-induced monocyte migration ([1]; PTX, 1 μM galectin-3, p<0.01, n=5): 91.2%
- Inhibition of galectin-3-induced monocyte migration ([1]; PTX, 10 or 100 nM galectin-3, p=0.8501 and 0.3093, n=5): did not significantly inhibit
- Effect of PTX on MCP-1-induced Ca2+ influx (human monocytes; 1 μg/ml of PTX, 100 ng/ml MCP-1): blocked
- Effect of PTX on galectin-3-induced Ca2+ influx (human monocytes; 1 μg/ml of PTX, 1 μM galectin-3): blocked
- Viability of monocytes (monocytes): did not decrease the viability

Compound: OC[C@H]1O[C@@H](O[C@H]2[C@H](O)[C@@H](O)C(O)O[C@@H]2CO)[C@H](O)[C@@H](O)[C@H]1O (some centres unmarked) [lactose, reference compound]
- Effect on monocyte migration induced by MCP-1 ([1]; 5 mM and 10 mM lactose): did not affect
- Decrease of galectin-3-induced monocyte migration ([1]; 5 mM lactose, 10 nM galectin-3, p<0.05, n=3): 63.8%
- Decrease of galectin-3-induced monocyte migration ([1]; 5 mM lactose, 100 nM galectin-3, p<0.05, n=3): 71.5%
- Decrease of galectin-3-induced monocyte migration ([1]; 5 mM lactose, 1 μM galectin-3, p<0.05, n=3): 57.6%
- inhibition at 10000 µM ([1]; 10 nM galectin-3, p<0.05, n=3): 78%
- inhibition at 10000 µM ([1]; 100 nM galectin-3, p<0.05, n=3): 74.1%
- inhibition at 10000 µM ([1]; 1 μM galectin-3, p<0.05, n=3): 71.1%
- Inhibition of MCP-1-induced Ca2+ influx (human monocytes; 5 mM lactose, 100 ng/ml MCP-1): not
- Inhibition of galectin-3-induced Ca2+ influx (human monocytes; 5 mM lactose, 1 μM galectin-3): complete inhibition
